# Source: patent publication US20220323471A1 (priority 2019, published 2022)
# Like-named read-outs stand apart in the source and are kept apart here.
# What was measured:
# [1] = test system: endosomes and lysosomes of HT1080 cells; assay: Acridine Orange fluorescence, endosomal/lysosomal acidification; format: cell-based, human; conditions: 4 hours pre-incubation, DGP, diphyllin, 6DG 2, 1 or 0.1 μM, Bafilomycin 100 nM, NH4Cl 25 mM
# Method: To determine whether DGP inhibited ZIKV infection by preventing the acidification of endosomes and lysosomes, Acridine Orange (AO) was used, a cell-permeable fluorescent dye marker that accumulates in low pH compartments such as endosomes and lysosomes.
# HT1080 cells were pre-incubated for 4 hours with the Bafilomycin (FIG. 10A, 100 nM), NH4Cl (FIG. 10A, 25 mM), DGP (FIG. 10B: 2 μM, 1 μM, or 0.1 μM) diphyllin (FIG. 10C: 2 μM, 1 μM, or 0.1 μM), or 6DG (FIG. 10C: 2 μM, 1 μM, or 0.1 μM) to test whether DGP prevents endosomal/lysosomal acidification. After staining the cells with 1 μg/mL of AO, changes in fluorescence were measured using a Celesta flow cytometer on the PerCP-Cy5-5-A channel. A shift in the AO fluorescence is indicated with an arrow in FIGS. 10A-10D.
# Acridine Orange (Invitrogen) staining was performed as described previously (Kanzawa, T. et al. 2004, “Role of autophagy in temozolomide-induced cytotoxicity for malignant glioma cells.” Cell Death Differ 11(4): 448-457). Cells were stained with 1 μg/mL AO in 10% FBS DMEM for 30 min at 37° C. and then collected by trypsinization. Changes in fluorescence were measured using a Celesta flow cytometer in the PerCP-Cy5-5-A channel.
# WNV-RVP = format: cell-based, West Nile virus; conditions: VERO cells; DGP 1 μM; NH4Cl 20 mM
# Sendai Virus (SeV) = assay: Sendai Virus infection and IFN-β production in CHME3 cells; format: cell-based; conditions: SeV MOI 1 and 10, DGP 1 μM, NH4Cl 20 mM
# Method: The Flaviviridae family of viruses encode a glycoprotein that is necessary to achieve fusion at the endosomal/lysosomal membranes, the step that releases viral components into the cytoplasm. […] Instead, SeV fuses at the plasma membrane. To this end, IFN-β production and viral infection were measured in CHME3 cells infected with SeV at an MOI 1 and 10 in the presence of DGP (1 μM) or 20 mM NH4Cl.
# To detect viral copies of ZIKV and Sendai Virus (SeV) by qRT-PCR, cells were seeded in 24-well plates, with or without DGP treatment, and infected with the virus at the indicated MOI for 48 h. After the incubation period, total RNA from HT1080, VERO, and CHME3 cells was isolated and purified using Trizol (Invitrogen). For detection of ZIKV viral load in brain and spleen, 3 mice were sacrificed at 6 days post-infection and total RNA was extracted from the brain and spleen. For cDNA synthesis, 1 ng of total RNA was reverse transcribed. The reaction mixture included 1 mM of deoxyribonucleotide phosphates (dNTPs), 2 nM of the specific reverse primer of ZIKV or SeV, 1× M-MULV buffer, 10 U M-MuLV RT (BioLabs), and 2 U of RNase Inhibitor. The reaction mixture was incubated for 1 hour at 42° C. followed by 20 min at 65° C. to inactivate the enzyme. For actin detection, Oligo-dT was used to reverse transcribe total RNA.
# ZIKV RNA levels were measured using real-time PCR. HT1080 and VERO cells were challenged by ZIKV MR766 at an MOI of 1 in the presence of DGP. At 48 hours post-challenge, cells were lysed and total RNA was extracted using trizol. Total RNA was used to determine the levels of ZIKV RNA by real-time PCR using specific primers against ZIKA. qRT-PCR was carried out using SYBR green in a 20-μl final volume using a MASTERCYCLER proS machine. The primers used to detect ZIKV were: SEQ ID NO. 1: 5′-TT […]-3′-Forward (Genome Position 941-964) and SEQ ID NO. 2: 5′-[…]-3′-Reverse (Genome position 1123-1103) (AY632535.2). For the detection of SeV, the following primers were used: SEQ ID NO. 3: 5′-[…]-3′-Forward (Genome position 210-233) and SEQ ID NO. 4: 5′-[…]-3′-Reverse (Genome position 332-307) (M30202. Genome position 210-332) (Wagner, A. M. et al. 2003, “Detection of sendai virus and pneumonia virus of mice by use of fluorogenic nuclease reverse transcriptase polymerase chain reaction analysis.” Comp Med 53(2): 173-177). For the detection of IFN-β the following primers were used: SEQ ID NO. 5: Forward 5-[…]-3′ (Genome position 644-668) and SEQ ID Na 6: Reverse 5′-[…]-3′ (Genome position 718-697) (NM_002176.2) and for actin detection: SEQ ID NO. 7: 5′-[…]-′3-Forward and SEQ ID NO. 8: 5′-[…]′3-Reverse. ZIKA viral RNA levels were normalized to actin (upper panels). […]
# EBV RVP = format: cell-based, Ebola virus
# TBEV-RVP = format: cell-based, tick-borne encephalitis virus
# ZIKV strain MR766 = ZIKV strain MR766 infection, 4G2 antibody flow cytometry; conditions: for IC50: Zika virus
# JEV-RVP = format: cell-based, Japanese encephalitis virus; conditions: VERO cells; DGP 1 μM; NH4Cl 20 mM
# DENV1-RVP = format: cell-based, dengue virus; conditions: VERO cells; DGP 1 μM; NH4Cl 20 mM
# ZIKV = conditions: cited from earlier work
# [2] = test system: HT1080, CHME3, VERO cells; assay: MTT cell viability assay; format: cell-based, human and monkey; conditions: human or monkey cells (HT1080, CHME3, VERO); 48 hours
# Method: Cell viability was determined by measuring the reduction of the tetrazolium dye MTT [3-(4,5-dimethylthiazol-2-yl)-2,5-diphenyltetrazolium bromide] to its insoluble form formazan. We treated 4×10^3 cells/well in a 96-well plate with serial dilutions of the indicated drugs. Human and monkey cells were incubated with DGP, diphyllin, or 6-deoxy-D-glucose for 48 hours at 37° C. After the incubation period, 10 μl MTT solution (5 mg/mL) was added to each well for an additional 4 hours at 37° C. Finally, the media was removed and dimethyl sulfoxide was added (200 μl/well) according to the manufacturer's instructions. The optical density was measured at 570 nm using a microplate reader. Experiments were performed in triplicates and standard deviations are shown. Mock-treated cells represent 100% viability.
smiles,measurement,setting,value
"C[C@@H](O)[C@@H](O)[C@H](O)[C@@H](O)C=O [Formula 6DG, 6-deoxyglucose, reference compound]",acidification of endosomes and lysosomes (AO fluorescence),[1],did not prevent
"Cl.N [NH4Cl, ammonium chloride, reference compound]",WNV RVP infection,WNV-RVP,inhibited infection
same,IFN-β production in SeV-infected cells,Sendai Virus (SeV),increased induction
same,SeV infection / viral replication,Sendai Virus (SeV),increased viral replication
same,EBV RVP infection,EBV RVP,inhibited infection
same,TBEV RVP infection,TBEV-RVP,inhibited infection
same,percentage of 4G2-positive cells,"ZIKV strain MR766; CHME3 cells, MOI 1, DGP 0.1 and 1 μM, NH4Cl 20 mM, 48 hours",substantial decrease
same,JEV RVP infection,JEV-RVP,inhibited infection
same,acidification of endosomes and lysosomes (AO fluorescence),[1],prevent endosomal and lysosomal acidification
same,DENV1 RVP infection,DENV1-RVP,inhibited infection
CCN(CC)CCCC(C)Nc1ccnc2cc(Cl)ccc12 (stereo not shown) [chloroquine],required inhibitory concentrations for ZIKV in cell culture,ZIKV,micromolar range
"COc1cc2c(O)c3c(c(-c4ccc5c(c4)OCO5)c2cc1OC)C(=O)OC3 [diphyllin, Diphyllin]",toxicity at concentrations required to inhibit ZIKV infection (MTT),[2],not toxic
same,IC50,"ZIKV strain MR766; HT-1080, read-out: IC50, ZIKV infection",60 nM
same,IC50,"ZIKV strain MR766; read-out: IC50, ZIKV infection",210 nM
same,acidification of endosomes and lysosomes (AO fluorescence),[1],prevented the acidification of endosomes and lysosomes but to a lesser extent
CCN(CCO)CCCC(C)Nc1ccnc2cc(Cl)ccc12 (stereo not shown) [hydroxychloroquine],required inhibitory concentrations for ZIKV in cell culture,ZIKV,micromolar range
